US9006221B2, “Method of modulating ship activity” (H. Lee Moffitt Cancer Center and Reserach Institute, Inc., priority 2008, dated 2015)
“Also recorded” adds a separate entry of the source.

Experiments:
[1] = system: priming of allogeneic T cell responses by C57Bl6/J splenocytes; test: One-way mixed leukocyte reaction (MLR), stimulator splenocytes treated in vitro; format: cell-based, mouse; conditions: splenocytes cultured with compound 72 hr, added at 0, 24 and 48 hr
Description: Mean proliferation of 100K BALB/C responders as measured by ^3H-Thymidine uptake after exposure to 200K irradiated BL6 stimulators that were treated with the indicated compound, 1×DMSO or 1× EtOH prior to initiation of the mixed leukocyte reaction (MLR). 1×DMSO serves as the allogeneic MLR positive control for all compounds with the exception of HLM85321 for which 1× EtOH is the positive control. [*p<0.05, **p<0.01].
Spleen cells and lymphe node LN cells are normally robust stimulators of allogeneic T cell responses in the one-way mixed leukocyte reaction (MLR) assay, but they are very poor stimulators when obtained from mice with germline or induced SHIP-deficiency. […]
Mixed leukocyte reactions (MLR): Following RBC lysis, irradiated (2000 Rads) BL6 splenocytes (stimulators) at 8×10^5 cells/well were combined with BALB/c splenocytes (responders) at 4×10^5 cells/well in a one-way MLR assay. […] Incorporated [3H]thymidine was quantitated using a Packard TopCount NXT. Specific [3H]thymidine incorporation into genomic DNA was calculated as the average of the mean (±SEM) of sextuplicate wells. […]

NK1.1+CD3- NK cells = test: NK cell compartment in spleens of treated mice; format: in vivo, mouse; conditions: mice treated daily for 6 days, spleen on day 7
Description: Mice were treated daily for 6 days with either NSC13480, vehicle alone (Vehicle) or were non-manipulated (Normal). On the 7th day the spleens of the mice were analyzed for NK cell content (NK1.1+CD3− cells) and for expression of the MHC-I inhibitory receptor Ly49G2.
SHIP-deficiency expands the peripheral NK compartment and disrupts the repertoire of receptors elaborated by NK cells that recognize MHC-I ligands. The NK cell compartment was examined in NSC13480-treated mice to determine if inhibition of SHIP enzymatic activity in vivo could also lead to similar disruptions in the NK cell compartment. […] Ly49G2 is an MHC-I inhibitory receptor shown to be under-represented in SHIP^−/− mice.
Antibody staining and flow cytometry (Examples 1-6): Anti-CD16/32 was co-incubated with the samples to block Fc receptor binding. Antibodies used for staining included: NK1.1 (PK136); CD3e (145-2C11); Ly49G2 (4D11); Gr-1 (RB6-8C5); Mac-1(M1/70); CD11c (HL3); CD4 (GK1.5); CD25 (PC61) and were obtained from BD Pharmingen (San Jose, Calif.). FoxP3 (FJK-16s) was purchased from eBioScience (San Diego, Calif.). All samples were acquired on a FACSCalibur and analyzed using FlowJo8.7.1. For viable staining, dead cells were excluded from the analysis following cytometer acquisition of data by exclusion of the 7AAD dye. […]

MG63 cells = test: MTT cell viability assay, MG63; format: cell-based; conditions: MG63, lacks SHIP1 expression, 36 hours
Description: (A) SHIP1 expression in KG1 and MG63 cells was determined by Western blotting (top). Membranes were reprobed with antibodies against b-actin to confirm equal loading (lower panel). One representative blot of 2 individual experiments is shown. (B) KG1 and MG63 cells were plated in duplicate in 96 well plates, and treated for 36 hours with increasing concentrations of the 3α-aminocholestane. Cell viability was assessed by MTT assay. Results represent the mean of three individual experiments. (C) KG1 cells were treated with increasing concentrations of 3α-aminocholestane for 36 hours and hallmarks of apoptosis were identified in cell lysates by Western Blot analysis. […] (D) KG1 cells were treated with increasing concentrations of 3α-aminocholestane, and the percentage of AnnexinV and PI positive cells was determined by FACS analysis. […]
Cell viability assay: Cells were treated in duplicate for 36 hours with increasing concentrations of 3α-aminocholestane or vehicle. […] Formed crystals were dissolved in dimethyl sulfoxide and optical density (OD) was measured at 570 nm. The OD of compound treated cells was divided by the OD of their vehicle control, and the viability was expressed as a percentage of untreated cells. Results are expressed as mean±SEM of three individual experiments.

| SMILES | ability of splenocytes to prime allogeneic T cell responses by BALB/C responders (3H-thymidine uptake) [1] | frequency of Ly49G2+ NK cells (NK1.1+CD3- NK cells) | splenic NK cell numbers (NK1.1+CD3- NK cells) | growth and survival of cells (MTT viability) (MG63 cells) |
| --- | --- | --- | --- | --- |
| OC(c1cc(-c2ccccc2)nc2c1ccc1ccccc12)C1CCCCN1 (stereo not shown) [NSC13480, (2-phenylbenzo[h]quinolin-4-yl)-piperidin-2-ylmethanol] | significantly inhibited; also recorded: complete inability to prime allogeneic T cell responses | much reduced frequency | significant increase |  |
| CC(C)CCC[C@@H](C)[C@H]1CC[C@H]2[C@@H]3CC[C@H]4C[C@H](N)CC[C@]4(C)[C@H]3CC[C@]12C [NSC23922, (3R,5S,8R,9S,10S,13R,14S,17R)-10,13-dimethyl-17-[(2R)-6-methylheptan-2-yl]-2,3,4,5,6,7,8,9,11,12,14,15,16,17-tetradecahydro-1H-cyclopenta[a]phenanthren-3-amine] |  |  |  | not in cells that lacks SHIP1 expression |
